System: adult beagle dogs
Assay: Metformin-induced retrograde giant contractions (RGCs) and vomiting in beagle dogs, with or without intravenous ondansetron
Type: in vivo, dog
Method: Contractions of the smooth muscle of the gastrointestinal tracts of the dogs were monitored with strain gauge force transducers to permit detection of retrograde giant contractions (RGCs). The times at which either RGCs or vomiting occurred were recorded. Vomiting is always preceded by RGCs, while RGCs may also occur without vomiting and are generally thought to be an indication of nausea.

Structure (SMILES): Cc1nccn1CC1CCc2c(c3ccccc3n2C)C1=O (stereo not shown) [Ondansetron, 1,2,3 ,9-Tetrahydro-9-methyl-3-[(2-methyl1-H-imidazole-1-yl)methyl]-4H-carbazol-4-one]
- Time at which one RGC and vomit occurred after metformin administration (Dog A, Test 2, ondansetron 0.15 mg/kg i.v. 15 min before metformin 25 mg/kg): 179 minutes after metformin
- Observations (RGCs, vomiting) (Dog A, Test 3, ondansetron 0.15 mg/kg i.v. 15 min before metformin 25 mg/kg): no RGCs or vomiting occurred
- Observations (RGCs, vomiting) (Dog B, Tests 3 and 4, ondansetron 0.15 mg/kg i.v. 15 min before metformin 50 mg/kg): no RGCs or vomiting occurred
- Suppression of the emetic effects of a metformin dosage (overall conclusion from the dog tests): effective in suppressing the emetic effects

— patent publication US6451808B1 (DepoMed, Inc., priority 2000, dated 2002)
